Source: the kinase profiling compilation of Christmann-Franck et al. (2016)
Several values for one entry are separate records, joined by “and”; a condition that tells them apart may be missing. Equal entries are not always repeated.

Key:
Test in all cases: radiometric filter-binding kinase assay, Kinase HotSpot
Settings in all cases: compound 0.5 µM; ATP 10 µM
SGK2 (human) = SGK2 (human) (UniProt Q9HBY8)
DYRK1A (human) = DYRK1A (human) (UniProt Q13627)
CAMKK1 (human) = CAMKK1 (human) (UniProt Q8N5S9)
CLK4 (human) = CLK4 (human) (UniProt Q9HAZ1)
PTK2B (human) = PTK2B (human) (UniProt Q14289)
RPS6KA1 KD1 KD2 (human) = RPS6KA1 KD1 KD2 (human) (UniProt Q15418)
CSNK1D (human) = CSNK1D (human) (UniProt P48730)
ACVR1B (human) = ACVR1B (human) (UniProt P36896)
SIK2 (human) = SIK2 (human) (UniProt Q9H0K1)
PHKG1 (human) = PHKG1 (human) (UniProt Q16816)
MST4 (human) = MST4 (human) (UniProt Q9P289)
MAP3K8 (human) = MAP3K8 (human) (UniProt P41279)
FGFR3 (human) = FGFR3 (human) (UniProt P22607)
LCK (human) = LCK (human) (UniProt P06239)
MAPK11 (human) = MAPK11 (human) (UniProt Q15759)
AKT3 (human) = AKT3 (human) (UniProt Q9Y243)
CSF1R (human) = CSF1R (human) (UniProt P07333)
SGK3 (human) = SGK3 (human) (UniProt Q96BR1)
PRKCZ (human) = PRKCZ (human) (UniProt Q05513)
OXSR1 (human) = OXSR1 (human) (UniProt O95747)
WNK3 (human) = WNK3 (human) (UniProt Q9BYP7)
WEE1 (human) = WEE1 (human) (UniProt P30291)
TEC (human) = TEC (human) (UniProt P42680)
PRKD1 (human) = PRKD1 (human) (UniProt Q15139)
MAPK3 (human) = MAPK3 (human) (UniProt P27361)
ROCK2 (human) = ROCK2 (human) (UniProt O75116)
LYN (human) = LYN (human) (UniProt P07948)
STK16 (human) = STK16 (human) (UniProt O75716)
MARK4 (human) = MARK4 (human) (UniProt Q96L34)
ITK (human) = ITK (human) (UniProt Q08881)
RPS6KA6 KD1 KD2 (human) = RPS6KA6 KD1 KD2 (human) (UniProt Q9UK32)
CDK5 CDK5R1 p35 (human) = CDK5 CDK5R1 p35 (human) (UniProt Q00535+Q15078)
ERBB2 (human) = ERBB2 (human) (UniProt P04626)
PRKG1 (human) = PRKG1 (human) (UniProt Q13976)
EPHB4 (human) = EPHB4 (human) (UniProt P54760)
PRKCH (human) = PRKCH (human) (UniProt P24723)
BMX (human) = BMX (human) (UniProt P51813)
MARK3 (human) = MARK3 (human) (UniProt P27448)
STK4 (human) = STK4 (human) (UniProt Q13043)
FGFR1 (human) = FGFR1 (human) (UniProt P11362)
PLK1 (human) = PLK1 (human) (UniProt P53350)
FGFR2 (human) = FGFR2 (human) (UniProt P21802)

Sequence of PLK1 (human) (P53350 whole entry, looked up): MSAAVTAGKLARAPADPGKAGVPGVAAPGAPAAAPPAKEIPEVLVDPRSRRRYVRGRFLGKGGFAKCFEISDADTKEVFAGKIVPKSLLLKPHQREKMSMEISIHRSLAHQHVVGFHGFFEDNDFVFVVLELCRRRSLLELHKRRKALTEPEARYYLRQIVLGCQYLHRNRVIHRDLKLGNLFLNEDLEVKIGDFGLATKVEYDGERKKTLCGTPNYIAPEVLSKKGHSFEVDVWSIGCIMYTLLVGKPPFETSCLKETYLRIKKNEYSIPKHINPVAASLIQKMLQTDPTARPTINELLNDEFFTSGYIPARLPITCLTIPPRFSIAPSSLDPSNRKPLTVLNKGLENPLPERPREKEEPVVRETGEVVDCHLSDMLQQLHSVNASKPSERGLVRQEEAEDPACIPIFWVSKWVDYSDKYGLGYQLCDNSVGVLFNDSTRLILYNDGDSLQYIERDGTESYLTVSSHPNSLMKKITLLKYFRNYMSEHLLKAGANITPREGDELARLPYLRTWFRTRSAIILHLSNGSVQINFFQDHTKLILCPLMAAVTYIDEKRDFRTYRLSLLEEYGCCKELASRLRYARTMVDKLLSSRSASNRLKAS
Sequence of MAPK11 (human) (Q15759 whole entry, looked up): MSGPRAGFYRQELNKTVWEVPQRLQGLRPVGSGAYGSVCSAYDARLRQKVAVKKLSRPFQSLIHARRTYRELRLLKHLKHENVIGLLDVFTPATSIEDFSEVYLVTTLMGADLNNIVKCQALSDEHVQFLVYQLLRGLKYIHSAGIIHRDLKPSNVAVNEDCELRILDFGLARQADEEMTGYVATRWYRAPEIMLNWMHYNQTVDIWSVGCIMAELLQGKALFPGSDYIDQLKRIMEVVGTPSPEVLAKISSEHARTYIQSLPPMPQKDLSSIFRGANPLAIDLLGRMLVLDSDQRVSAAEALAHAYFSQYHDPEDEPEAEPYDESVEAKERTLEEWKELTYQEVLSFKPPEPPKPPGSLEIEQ
Sequence of WEE1 (human) (P30291 whole entry, looked up): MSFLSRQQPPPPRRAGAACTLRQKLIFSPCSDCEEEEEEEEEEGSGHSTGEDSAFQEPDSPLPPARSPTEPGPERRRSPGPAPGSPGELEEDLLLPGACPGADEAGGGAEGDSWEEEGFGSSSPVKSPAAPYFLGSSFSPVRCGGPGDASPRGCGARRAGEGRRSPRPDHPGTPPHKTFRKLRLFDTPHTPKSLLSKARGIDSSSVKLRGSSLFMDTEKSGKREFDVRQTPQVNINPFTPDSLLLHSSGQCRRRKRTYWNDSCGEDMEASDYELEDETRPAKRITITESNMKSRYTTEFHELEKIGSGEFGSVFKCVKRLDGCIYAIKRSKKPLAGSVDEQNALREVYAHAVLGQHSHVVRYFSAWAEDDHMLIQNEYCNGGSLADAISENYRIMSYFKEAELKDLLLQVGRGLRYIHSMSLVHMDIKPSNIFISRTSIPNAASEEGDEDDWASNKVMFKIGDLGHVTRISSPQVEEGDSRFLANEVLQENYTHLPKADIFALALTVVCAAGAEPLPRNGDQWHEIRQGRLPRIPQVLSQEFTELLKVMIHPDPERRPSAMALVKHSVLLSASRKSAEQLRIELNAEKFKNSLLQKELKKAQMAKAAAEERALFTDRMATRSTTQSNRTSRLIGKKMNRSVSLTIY
Sequence of WNK3 (human) (Q9BYP7 whole entry, looked up): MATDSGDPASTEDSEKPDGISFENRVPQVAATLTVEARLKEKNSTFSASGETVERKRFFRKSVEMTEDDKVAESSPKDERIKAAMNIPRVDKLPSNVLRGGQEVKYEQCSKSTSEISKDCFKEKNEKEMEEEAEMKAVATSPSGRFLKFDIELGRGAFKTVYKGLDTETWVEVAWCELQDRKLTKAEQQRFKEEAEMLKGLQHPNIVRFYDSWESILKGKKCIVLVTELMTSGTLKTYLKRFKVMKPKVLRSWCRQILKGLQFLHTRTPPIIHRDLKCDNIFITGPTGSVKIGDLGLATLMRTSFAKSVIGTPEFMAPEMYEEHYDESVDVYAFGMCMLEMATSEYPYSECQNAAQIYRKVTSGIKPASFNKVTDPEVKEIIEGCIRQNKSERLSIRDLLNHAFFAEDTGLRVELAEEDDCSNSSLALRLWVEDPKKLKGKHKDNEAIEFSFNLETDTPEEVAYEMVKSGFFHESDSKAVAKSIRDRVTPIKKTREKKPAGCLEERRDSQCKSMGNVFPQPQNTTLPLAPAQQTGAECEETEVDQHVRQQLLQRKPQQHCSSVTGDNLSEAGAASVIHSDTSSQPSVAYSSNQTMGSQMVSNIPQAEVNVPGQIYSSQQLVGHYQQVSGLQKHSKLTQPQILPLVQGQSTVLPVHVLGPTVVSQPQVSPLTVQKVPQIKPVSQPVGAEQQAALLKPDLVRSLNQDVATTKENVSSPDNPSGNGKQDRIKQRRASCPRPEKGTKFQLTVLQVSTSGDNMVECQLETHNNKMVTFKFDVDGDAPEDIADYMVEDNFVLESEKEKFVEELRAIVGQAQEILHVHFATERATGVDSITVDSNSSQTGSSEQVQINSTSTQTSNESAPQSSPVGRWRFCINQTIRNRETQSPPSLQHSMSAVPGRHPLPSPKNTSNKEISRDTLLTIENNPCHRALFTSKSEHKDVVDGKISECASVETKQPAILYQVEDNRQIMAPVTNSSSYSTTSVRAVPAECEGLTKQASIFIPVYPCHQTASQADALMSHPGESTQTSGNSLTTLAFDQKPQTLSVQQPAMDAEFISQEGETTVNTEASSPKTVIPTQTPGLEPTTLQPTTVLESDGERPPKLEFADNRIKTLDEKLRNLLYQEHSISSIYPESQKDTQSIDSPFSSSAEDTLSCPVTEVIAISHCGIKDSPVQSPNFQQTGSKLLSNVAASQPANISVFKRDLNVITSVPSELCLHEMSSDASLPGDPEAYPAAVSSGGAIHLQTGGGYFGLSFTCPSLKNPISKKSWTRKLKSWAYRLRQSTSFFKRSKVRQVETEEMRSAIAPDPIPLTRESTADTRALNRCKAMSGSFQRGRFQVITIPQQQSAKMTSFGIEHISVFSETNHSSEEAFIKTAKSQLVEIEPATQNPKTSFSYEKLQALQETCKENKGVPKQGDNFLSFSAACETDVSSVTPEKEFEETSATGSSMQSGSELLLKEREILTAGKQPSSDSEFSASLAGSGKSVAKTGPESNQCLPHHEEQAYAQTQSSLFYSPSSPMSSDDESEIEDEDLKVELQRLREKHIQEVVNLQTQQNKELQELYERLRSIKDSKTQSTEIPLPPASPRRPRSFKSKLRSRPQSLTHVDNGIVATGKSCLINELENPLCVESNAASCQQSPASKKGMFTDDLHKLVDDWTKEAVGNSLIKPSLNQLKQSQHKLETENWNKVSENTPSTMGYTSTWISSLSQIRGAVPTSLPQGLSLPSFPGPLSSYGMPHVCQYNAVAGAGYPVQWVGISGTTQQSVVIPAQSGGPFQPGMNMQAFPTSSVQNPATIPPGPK
Sequence of STK4 (human) (Q13043 whole entry, looked up): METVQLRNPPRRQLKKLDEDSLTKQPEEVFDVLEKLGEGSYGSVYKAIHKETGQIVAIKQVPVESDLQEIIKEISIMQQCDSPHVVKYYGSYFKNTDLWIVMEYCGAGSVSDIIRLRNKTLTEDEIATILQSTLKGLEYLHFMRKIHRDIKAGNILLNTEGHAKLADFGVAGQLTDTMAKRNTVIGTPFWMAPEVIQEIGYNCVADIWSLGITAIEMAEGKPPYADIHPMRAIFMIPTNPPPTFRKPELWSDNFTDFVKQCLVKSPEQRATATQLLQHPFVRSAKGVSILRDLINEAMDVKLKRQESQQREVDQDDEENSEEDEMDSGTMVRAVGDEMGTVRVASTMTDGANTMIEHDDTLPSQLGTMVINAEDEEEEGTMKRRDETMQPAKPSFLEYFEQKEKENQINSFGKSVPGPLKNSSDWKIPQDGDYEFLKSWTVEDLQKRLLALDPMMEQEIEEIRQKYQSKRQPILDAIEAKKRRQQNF
Sequence of MAP3K8 (human) (P41279 whole entry, looked up): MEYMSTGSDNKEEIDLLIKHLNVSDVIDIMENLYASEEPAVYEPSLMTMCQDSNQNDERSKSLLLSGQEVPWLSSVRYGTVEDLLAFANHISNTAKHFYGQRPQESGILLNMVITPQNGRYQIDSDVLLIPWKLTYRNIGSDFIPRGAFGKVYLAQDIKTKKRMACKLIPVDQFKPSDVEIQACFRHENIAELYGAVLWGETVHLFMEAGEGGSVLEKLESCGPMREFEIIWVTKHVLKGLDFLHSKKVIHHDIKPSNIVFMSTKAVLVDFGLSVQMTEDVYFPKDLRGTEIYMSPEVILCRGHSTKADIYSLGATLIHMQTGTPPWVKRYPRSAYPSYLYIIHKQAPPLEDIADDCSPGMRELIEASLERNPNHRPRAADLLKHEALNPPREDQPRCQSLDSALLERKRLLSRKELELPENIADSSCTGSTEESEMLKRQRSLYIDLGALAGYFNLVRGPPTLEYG
Sequence of ACVR1B (human) (P36896 whole entry, looked up): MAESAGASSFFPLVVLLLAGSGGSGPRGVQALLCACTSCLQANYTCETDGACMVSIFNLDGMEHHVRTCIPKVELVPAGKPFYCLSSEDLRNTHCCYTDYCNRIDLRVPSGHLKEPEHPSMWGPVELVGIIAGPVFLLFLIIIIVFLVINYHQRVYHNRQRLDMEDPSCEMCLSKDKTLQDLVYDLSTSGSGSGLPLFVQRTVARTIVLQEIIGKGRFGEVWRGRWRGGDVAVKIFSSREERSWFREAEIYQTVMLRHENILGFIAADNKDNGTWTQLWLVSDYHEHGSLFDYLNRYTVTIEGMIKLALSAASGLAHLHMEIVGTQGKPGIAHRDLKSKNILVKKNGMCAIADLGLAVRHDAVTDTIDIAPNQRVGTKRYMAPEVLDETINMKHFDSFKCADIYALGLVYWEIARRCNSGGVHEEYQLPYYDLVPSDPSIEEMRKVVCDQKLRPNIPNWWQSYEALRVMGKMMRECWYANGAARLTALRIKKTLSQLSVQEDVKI

**Q.** Which results are given for `CCN(CC)C(=O)c1ccc(Nc2nc(OCC3CCCCC3)c3nc[nH]c3n2)cc1`?
**A.** residual activity (SGK2 (human)): 94.4%; residual activity (DYRK1A (human)): 91.9%; residual activity (CAMKK1 (human)): 96.8%; residual activity (CLK4 (human)): 44.2%; residual activity (PTK2B (human)): 48.7%; residual activity (RPS6KA1 KD1 KD2 (human)): 57.1%; residual activity (CSNK1D (human)): 102%; residual activity (ACVR1B (human)): 101%; residual activity (SIK2 (human)): 75.3%; residual activity (PHKG1 (human)): 85.9%; residual activity (MST4 (human)): 84.9%; residual activity (MAP3K8 (human)): 101%; residual activity (FGFR3 (human)): 66.9%; residual activity (LCK (human)): 39.8%; residual activity (MAPK11 (human)): 85.5%; residual activity (AKT3 (human)): 101%; residual activity (CSF1R (human)): 5.73%; residual activity (SGK3 (human)): 97.2%; residual activity (PRKCZ (human)): 95.8%; residual activity (OXSR1 (human)): 99%; residual activity (WNK3 (human)): 80.6%; residual activity (WEE1 (human)): 110%; residual activity (TEC (human)): 63%; residual activity (PRKD1 (human)): 62.6%; residual activity (MAPK3 (human)): 101%; residual activity (ROCK2 (human)): 39.8%; residual activity (LYN (human)): 78.2% and 89.7%; residual activity (STK16 (human)): 33.6%; residual activity (MARK4 (human)): 93.8%; residual activity (ITK (human)): 57.3%; residual activity (RPS6KA6 KD1 KD2 (human)): 46.2%; residual activity (CDK5 CDK5R1 p35 (human)): 77.1%; residual activity (ERBB2 (human)): 99.4%; residual activity (PRKG1 (human)): 89.8% and 96.1%; residual activity (EPHB4 (human)): 85%; residual activity (PRKCH (human)): 86.7%; residual activity (BMX (human)): 42.9%; residual activity (MARK3 (human)): 85.4%; residual activity (STK4 (human)): 46.3%; residual activity (FGFR1 (human)): 72.8%; residual activity (PLK1 (human)): 91.4%; residual activity (FGFR2 (human)): 76.6%

**Q.** What does the source list for `Oc1cccc(-c2nc(N3CCOCC3)c3oc4ncccc4c3n2)c1`?
**A.** residual activity (SGK2 (human)): 96.7%; residual activity (DYRK1A (human)): 94.3%; residual activity (CAMKK1 (human)): 84.6%; residual activity (CLK4 (human)): 81.5%; residual activity (PTK2B (human)): 103%; residual activity (RPS6KA1 KD1 KD2 (human)): 79.5%; residual activity (CSNK1D (human)): 91.3%; residual activity (SIK2 (human)): 98.9%; residual activity (PHKG1 (human)): 93.3%; residual activity (MST4 (human)): 98.6%; residual activity (MAP3K8 (human)): 99.2%; residual activity (FGFR3 (human)): 101%; residual activity (LCK (human)): 98%; residual activity (MAPK11 (human)): 103%; residual activity (AKT3 (human)): 99%; residual activity (CSF1R (human)): 108%; residual activity (SGK3 (human)): 95.8%; residual activity (PRKCZ (human)): 99.1%; residual activity (OXSR1 (human)): 93.2%; residual activity (WNK3 (human)): 93.9%; residual activity (WEE1 (human)): 81.6%; residual activity (TEC (human)): 113%; residual activity (PRKD1 (human)): 98.3%; residual activity (MAPK3 (human)): 94.1%; residual activity (ROCK2 (human)): 94.5%; residual activity (LYN (human)): 102% and 98.3%; residual activity (STK16 (human)): 91.7%; residual activity (MARK4 (human)): 93.4%; residual activity (ITK (human)): 93.1%; residual activity (RPS6KA6 KD1 KD2 (human)): 98.2%; residual activity (CDK5 CDK5R1 p35 (human)): 101%; residual activity (ERBB2 (human)): 105%; residual activity (PRKG1 (human)): 109% and 96.3%; residual activity (EPHB4 (human)): 104%; residual activity (PRKCH (human)): 89.8%; residual activity (BMX (human)): 101%; residual activity (MARK3 (human)): 97.4%; residual activity (STK4 (human)): 93.3%; residual activity (FGFR1 (human)): 91.7%; residual activity (PLK1 (human)): 97.9%; residual activity (FGFR2 (human)): 95.7%

**Q.** With `CC#CC(=O)Nc1cc2c(Nc3ccc(F)c(Cl)c3)ncnc2cn1` as the compound, how does the residual activity (SGK2 (human)) read?
**A.** 98.3%

**Q.** And the residual activity (DYRK1A (human))?
**A.** 96.4%

**Q.** What about the residual activity (CAMKK1 (human)) of the same compound?
**A.** 124%

**Q.** And the residual activity (CLK4 (human))?
**A.** 90.4%

**Q.** What about the residual activity (PTK2B (human)) of the same compound?
**A.** 94.1%

**Q.** And the residual activity (RPS6KA1 KD1 KD2 (human))?
**A.** 95.1%

**Q.** And the residual activity (CSNK1D (human))?
**A.** 99.3%

**Q.** What about the residual activity (ACVR1B (human)) of the same compound?
**A.** 104%

**Q.** What about the residual activity (SIK2 (human)) of the same compound?
**A.** 81.3%

**Q.** What about the residual activity (PHKG1 (human)) of the same compound?
**A.** 103%

**Q.** What about the residual activity (MST4 (human)) of the same compound?
**A.** 103%

**Q.** And the residual activity (MAP3K8 (human))?
**A.** 94.2%

**Q.** What about the residual activity (FGFR3 (human)) of the same compound?
**A.** 108%

**Q.** What about the residual activity (LCK (human)) of the same compound?
**A.** 92.2%

**Q.** What about the residual activity (MAPK11 (human)) of the same compound?
**A.** 96.2%

**Q.** And the residual activity (AKT3 (human))?
**A.** 97.8%

**Q.** And the residual activity (CSF1R (human))?
**A.** 101%

**Q.** What about the residual activity (SGK3 (human)) of the same compound?
**A.** 100%

**Q.** What about the residual activity (PRKCZ (human)) of the same compound?
**A.** 114%

**Q.** What about the residual activity (OXSR1 (human)) of the same compound?
**A.** 109%

**Q.** What about the residual activity (WNK3 (human)) of the same compound?
**A.** 95.1%

**Q.** And the residual activity (WEE1 (human))?
**A.** 93.2%

**Q.** What about the residual activity (TEC (human)) of the same compound?
**A.** 52.1%

**Q.** And the residual activity (PRKD1 (human))?
**A.** 98.7%

**Q.** What about the residual activity (MAPK3 (human)) of the same compound?
**A.** 100%

**Q.** And the residual activity (ROCK2 (human))?
**A.** 98.7%

**Q.** And the residual activity (LYN (human))?
**A.** 88.3% and 96.1%

**Q.** What about the residual activity (STK16 (human)) of the same compound?
**A.** 104%

**Q.** And the residual activity (MARK4 (human))?
**A.** 101%

**Q.** And the residual activity (ITK (human))?
**A.** 76.3%

**Q.** And the residual activity (RPS6KA6 KD1 KD2 (human))?
**A.** 95.3%

**Q.** What about the residual activity (CDK5 CDK5R1 p35 (human)) of the same compound?
**A.** 97.9%

**Q.** And the residual activity (ERBB2 (human))?
**A.** 2.36%

**Q.** And the residual activity (PRKG1 (human))?
**A.** 91.7% and 97.6%

**Q.** And the residual activity (EPHB4 (human))?
**A.** 83.4%

**Q.** What about the residual activity (PRKCH (human)) of the same compound?
**A.** 90.4%

**Q.** And the residual activity (BMX (human))?
**A.** 2.54%

**Q.** And the residual activity (MARK3 (human))?
**A.** 107%

**Q.** And the residual activity (STK4 (human))?
**A.** 98.7%

**Q.** What about the residual activity (FGFR1 (human)) of the same compound?
**A.** 91.1%

**Q.** What about the residual activity (PLK1 (human)) of the same compound?
**A.** 99.3%

**Q.** What about the residual activity (FGFR2 (human)) of the same compound?
**A.** 101%

**Q.** What does the source list for `Cc1ccc(S(=O)(=O)/C=C/C#N)cc1`?
**A.** residual activity (SGK2 (human)): 112%; residual activity (DYRK1A (human)): 107%; residual activity (CAMKK1 (human)): 114%; residual activity (CLK4 (human)): 89.7%; residual activity (PTK2B (human)): 92.8%; residual activity (RPS6KA1 KD1 KD2 (human)): 91.6%; residual activity (CSNK1D (human)): 103%; residual activity (ACVR1B (human)): 107%; residual activity (SIK2 (human)): 106%; residual activity (PHKG1 (human)): 95.8%; residual activity (MST4 (human)): 90.7%; residual activity (MAP3K8 (human)): 96.2%; residual activity (FGFR3 (human)): 95.2%; residual activity (LCK (human)): 93.7%; residual activity (MAPK11 (human)): 102%; residual activity (AKT3 (human)): 93.7%; residual activity (CSF1R (human)): 93.6%; residual activity (SGK3 (human)): 108%; residual activity (PRKCZ (human)): 101%; residual activity (OXSR1 (human)): 103%; residual activity (WNK3 (human)): 110%; residual activity (WEE1 (human)): 96.4%; residual activity (TEC (human)): 144%; residual activity (PRKD1 (human)): 93.8%; residual activity (MAPK3 (human)): 98.2%; residual activity (ROCK2 (human)): 99.1%; residual activity (LYN (human)): 101% and 108%; residual activity (STK16 (human)): 88.3%; residual activity (MARK4 (human)): 99%; residual activity (ITK (human)): 102%; residual activity (RPS6KA6 KD1 KD2 (human)): 95.4%; residual activity (CDK5 CDK5R1 p35 (human)): 97%; residual activity (ERBB2 (human)): 94.2%; residual activity (PRKG1 (human)): 95.8% and 96.7%; residual activity (EPHB4 (human)): 102%; residual activity (PRKCH (human)): 106%; residual activity (BMX (human)): 105%; residual activity (MARK3 (human)): 100%; residual activity (STK4 (human)): 94.7%; residual activity (FGFR1 (human)): 106%; residual activity (PLK1 (human)): 110%; residual activity (FGFR2 (human)): 102%
